Laboratory results published in ChEMBL document CHEMBL4507283, “Data for DCP probe BI-1935” (2021).

Legend:
[1] = target: Phosphatidylinositol 4-phosphate 5-kinase type-1 gamma (Homo sapiens) (UniProt O60331); conditions: Compound concentration 1000.0 nM
[2] = tested on: Tyrosine-protein kinase ABL1 (Homo sapiens), P00519 [Q252H]; conditions: Compound concentration 1000.0 nM
[3] = tested on: Tyrosine-protein kinase ABL1 (Homo sapiens), P00519 [T315I]; conditions: Compound concentration 1000.0 nM
[4] = tested on: Mast/stem cell growth factor receptor Kit (Homo sapiens), P10721 [D816H]; conditions: Compound concentration 1000.0 nM
[5] = target: Cyclin-dependent kinase 18 (Homo sapiens) (UniProt Q07002); conditions: Compound concentration 1000.0 nM
Chain of Cyclin-dependent kinase 18 (Homo sapiens) (Q07002 whole entry): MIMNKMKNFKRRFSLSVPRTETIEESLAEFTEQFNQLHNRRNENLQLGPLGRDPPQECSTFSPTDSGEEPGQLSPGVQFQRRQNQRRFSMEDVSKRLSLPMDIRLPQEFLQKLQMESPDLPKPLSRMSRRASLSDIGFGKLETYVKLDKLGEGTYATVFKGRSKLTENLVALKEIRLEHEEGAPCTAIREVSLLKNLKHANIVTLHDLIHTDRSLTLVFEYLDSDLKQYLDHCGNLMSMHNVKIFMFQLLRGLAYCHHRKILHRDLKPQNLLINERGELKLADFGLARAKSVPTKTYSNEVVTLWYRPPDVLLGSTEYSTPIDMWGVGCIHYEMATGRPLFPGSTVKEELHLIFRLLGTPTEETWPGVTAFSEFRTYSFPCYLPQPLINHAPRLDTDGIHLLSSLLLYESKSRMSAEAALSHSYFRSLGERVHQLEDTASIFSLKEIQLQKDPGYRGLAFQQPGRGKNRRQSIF

[6] = target: Serine/threonine-protein kinase/endoribonuclease IRE1 (Homo sapiens) (UniProt O75460); conditions: Compound concentration 1000.0 nM
[7] = target: Cyclin-dependent kinase 17 (Homo sapiens) (UniProt Q00537); conditions: Compound concentration 1000.0 nM
Chain of Cyclin-dependent kinase 17 (Homo sapiens) (Q00537 whole entry, looked up): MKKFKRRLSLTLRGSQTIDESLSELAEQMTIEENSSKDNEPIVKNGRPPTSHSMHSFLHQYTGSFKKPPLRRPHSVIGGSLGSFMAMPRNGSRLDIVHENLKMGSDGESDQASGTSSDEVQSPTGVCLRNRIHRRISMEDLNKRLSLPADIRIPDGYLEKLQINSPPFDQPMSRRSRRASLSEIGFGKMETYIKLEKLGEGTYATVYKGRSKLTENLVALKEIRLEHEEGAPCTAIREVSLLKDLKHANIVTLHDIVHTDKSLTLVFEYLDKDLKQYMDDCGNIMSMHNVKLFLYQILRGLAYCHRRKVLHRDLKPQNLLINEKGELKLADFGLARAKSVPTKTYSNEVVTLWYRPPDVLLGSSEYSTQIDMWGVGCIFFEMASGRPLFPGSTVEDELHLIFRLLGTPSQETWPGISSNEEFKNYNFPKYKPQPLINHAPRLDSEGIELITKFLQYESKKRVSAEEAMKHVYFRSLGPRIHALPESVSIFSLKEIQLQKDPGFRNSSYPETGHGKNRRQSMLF

[8] = target: Cyclin-G-associated kinase (Homo sapiens) (UniProt O14976); conditions: Compound concentration 1000.0 nM
[9] = target: Serine/threonine-protein kinase pim-1 (Homo sapiens) (UniProt P11309); conditions: Compound concentration 1000.0 nM
[10] = target: Dual specificity protein kinase CLK2 (Homo sapiens) (UniProt P49760); conditions: Compound concentration 1000.0 nM
[11] = target: Ephrin type-B receptor 2 (Homo sapiens) (UniProt P29323); conditions: Compound concentration 1000.0 nM
Chain of Ephrin type-B receptor 2 (Homo sapiens) (P29323 whole entry): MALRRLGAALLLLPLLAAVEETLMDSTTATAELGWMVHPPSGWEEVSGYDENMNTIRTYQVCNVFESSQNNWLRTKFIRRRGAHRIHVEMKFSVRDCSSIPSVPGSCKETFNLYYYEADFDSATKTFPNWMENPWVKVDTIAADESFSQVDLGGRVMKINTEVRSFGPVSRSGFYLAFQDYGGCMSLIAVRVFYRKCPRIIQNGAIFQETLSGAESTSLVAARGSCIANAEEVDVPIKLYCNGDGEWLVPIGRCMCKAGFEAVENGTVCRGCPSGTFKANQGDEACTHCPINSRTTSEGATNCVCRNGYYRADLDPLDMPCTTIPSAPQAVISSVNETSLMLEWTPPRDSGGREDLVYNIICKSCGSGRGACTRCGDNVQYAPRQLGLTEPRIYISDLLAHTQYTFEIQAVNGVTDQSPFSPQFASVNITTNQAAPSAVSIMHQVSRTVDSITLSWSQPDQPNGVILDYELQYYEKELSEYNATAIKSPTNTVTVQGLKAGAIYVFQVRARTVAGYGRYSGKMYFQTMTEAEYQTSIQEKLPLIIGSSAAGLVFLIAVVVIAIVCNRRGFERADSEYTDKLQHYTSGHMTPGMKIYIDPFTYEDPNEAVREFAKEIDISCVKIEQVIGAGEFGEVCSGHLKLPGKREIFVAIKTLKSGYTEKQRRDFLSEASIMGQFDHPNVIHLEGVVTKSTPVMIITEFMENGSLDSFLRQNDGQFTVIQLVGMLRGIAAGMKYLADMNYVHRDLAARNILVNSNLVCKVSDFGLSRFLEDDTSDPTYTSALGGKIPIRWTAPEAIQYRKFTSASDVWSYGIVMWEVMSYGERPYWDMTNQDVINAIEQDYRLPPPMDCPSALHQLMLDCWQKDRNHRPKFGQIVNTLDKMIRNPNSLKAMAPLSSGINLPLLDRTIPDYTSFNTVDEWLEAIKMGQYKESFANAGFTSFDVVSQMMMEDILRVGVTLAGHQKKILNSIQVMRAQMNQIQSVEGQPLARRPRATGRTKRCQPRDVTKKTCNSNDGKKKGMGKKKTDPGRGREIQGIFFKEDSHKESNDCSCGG

[12] = target: Serine/threonine-protein kinase 3 (Homo sapiens) (UniProt Q13188); conditions: Compound concentration 1000.0 nM
[13] = target: Mitogen-activated protein kinase 10 (Homo sapiens) (UniProt P53779); conditions: Compound concentration 1000.0 nM
[14] = target: Protein-tyrosine kinase 6 (Homo sapiens) (UniProt Q13882); conditions: Compound concentration 1000.0 nM
[15] = target: Membrane-associated tyrosine- and threonine-specific cdc2-inhibitory kinase (Homo sapiens) (UniProt Q99640); conditions: Compound concentration 1000.0 nM
Chain of Membrane-associated tyrosine- and threonine-specific cdc2-inhibitory kinase (Homo sapiens) (Q99640 whole entry): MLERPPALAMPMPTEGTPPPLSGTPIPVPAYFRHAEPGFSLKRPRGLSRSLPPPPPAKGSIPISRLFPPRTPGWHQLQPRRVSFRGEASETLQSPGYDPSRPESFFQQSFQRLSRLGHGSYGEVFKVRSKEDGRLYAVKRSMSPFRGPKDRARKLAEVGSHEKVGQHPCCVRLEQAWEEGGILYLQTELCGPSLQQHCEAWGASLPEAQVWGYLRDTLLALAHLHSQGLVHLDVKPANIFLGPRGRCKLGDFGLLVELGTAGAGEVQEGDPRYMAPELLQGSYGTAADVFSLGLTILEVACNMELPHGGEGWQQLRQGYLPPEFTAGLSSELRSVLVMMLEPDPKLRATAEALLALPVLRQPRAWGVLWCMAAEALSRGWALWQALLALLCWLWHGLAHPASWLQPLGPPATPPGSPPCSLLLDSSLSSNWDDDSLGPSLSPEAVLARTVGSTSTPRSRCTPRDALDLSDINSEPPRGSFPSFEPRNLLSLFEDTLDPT

[16] = target: Serine/threonine-protein kinase 10 (Homo sapiens) (UniProt O94804); conditions: Compound concentration 1000.0 nM
[17] = target: Sigma non-opioid intracellular receptor 1 (Homo sapiens, UniProt Q99720); assay: GPCRScan assay: inhibition of Sigma 1; set-up: radioligand conc. used [nm] 4.0 – 5.0, parental cells HEKT
[18] = target: Serine/threonine-protein kinase NLK (Homo sapiens) (UniProt Q9UBE8); conditions: Compound concentration 1000.0 nM
Chain of Serine/threonine-protein kinase NLK (Homo sapiens) (Q9UBE8 whole entry): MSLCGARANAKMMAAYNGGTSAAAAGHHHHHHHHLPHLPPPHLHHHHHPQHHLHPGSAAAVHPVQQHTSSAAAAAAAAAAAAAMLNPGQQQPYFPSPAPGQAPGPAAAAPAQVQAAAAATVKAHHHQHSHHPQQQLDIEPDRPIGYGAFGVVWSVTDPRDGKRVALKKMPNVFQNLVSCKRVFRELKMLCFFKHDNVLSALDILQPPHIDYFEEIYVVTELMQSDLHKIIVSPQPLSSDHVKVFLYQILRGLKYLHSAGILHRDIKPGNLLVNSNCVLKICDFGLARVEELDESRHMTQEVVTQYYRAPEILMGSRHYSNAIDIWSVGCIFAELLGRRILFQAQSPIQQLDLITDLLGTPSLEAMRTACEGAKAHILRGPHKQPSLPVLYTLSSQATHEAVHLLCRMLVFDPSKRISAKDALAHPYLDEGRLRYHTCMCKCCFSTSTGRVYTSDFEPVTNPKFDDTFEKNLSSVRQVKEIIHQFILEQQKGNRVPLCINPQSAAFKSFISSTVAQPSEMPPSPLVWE

[19] = target: Rhodopsin kinase GRK7 (Homo sapiens) (UniProt Q8WTQ7); conditions: Compound concentration 1000.0 nM
[20] = tested on: Receptor-type tyrosine-protein kinase FLT3 (Homo sapiens), P36888 [N841I]; conditions: Compound concentration 1000.0 nM
[21] = target: Serine/threonine-protein kinase TBK1 (Homo sapiens) (UniProt Q9UHD2); conditions: Compound concentration 1000.0 nM
[22] = target: Tyrosine-protein kinase CSK (Homo sapiens) (UniProt P41240); conditions: Compound concentration 1000.0 nM
[23] = target: TGF-beta receptor type-2 (Homo sapiens) (UniProt P37173); conditions: Compound concentration 1000.0 nM
[24] = target: Proto-oncogene tyrosine-protein kinase ROS (Homo sapiens) (UniProt P08922); conditions: Compound concentration 1000.0 nM
[25] = target: cGMP-dependent protein kinase 2 (Homo sapiens) (UniProt Q13237); conditions: Compound concentration 1000.0 nM
[26] = target: Serine/threonine-protein kinase BRSK1 (Homo sapiens) (UniProt Q8TDC3); conditions: Compound concentration 1000.0 nM
[27] = tested on: Receptor-type tyrosine-protein kinase FLT3 (Homo sapiens), P36888 [UNDEFINED MUTATION]; conditions: Compound concentration 1000.0 nM
[28] = target: Ephrin type-B receptor 4 (Homo sapiens) (UniProt P54760); conditions: Compound concentration 1000.0 nM
[29] = target: Leukotriene C4 synthase (Cavia porcellus) (UniProt A6XA80); assay: LTC4SYN Eurofins-Panlabs selectivity data (BI); conditions: Compound concentration 10.0 uM
Chain of Leukotriene C4 synthase (Cavia porcellus) (A6XA80 whole entry): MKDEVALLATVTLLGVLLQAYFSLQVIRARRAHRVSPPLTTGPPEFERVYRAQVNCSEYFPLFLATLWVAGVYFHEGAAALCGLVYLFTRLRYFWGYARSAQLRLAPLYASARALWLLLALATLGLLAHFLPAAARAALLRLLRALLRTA

[30] = target: Calcium/calmodulin-dependent protein kinase type 1G (Homo sapiens) (UniProt Q96NX5); conditions: Compound concentration 1000.0 nM
[31] = target: RAC-beta serine/threonine-protein kinase (Homo sapiens) (UniProt P31751); conditions: Compound concentration 1000.0 nM
[32] = tested on: Phosphatidylinositol 4,5-bisphosphate 3-kinase catalytic subunit alpha isoform (Homo sapiens), P42336 [H1047Y]; conditions: Compound concentration 1000.0 nM
[33] = target: ATP-sensitive inward rectifier potassium channel 1 isoform X1 (Mesocricetus auratus) (UniProt A0A1U8CU73); assay: K+/KATP/HA Eurofins-Panlabs selectivity data (BI); conditions: Compound concentration 10.0 uM
[34] = target: Mitogen-activated protein kinase kinase kinase 1 (Homo sapiens) (UniProt Q13233); conditions: Compound concentration 1000.0 nM
[35] = target: Serine/threonine-protein kinase MRCK beta (Homo sapiens) (UniProt Q9Y5S2); conditions: Compound concentration 1000.0 nM
[36] = target: Non-receptor tyrosine-protein kinase TYK2 (Homo sapiens) (UniProt P29597); conditions: Compound concentration 1000.0 nM
[37] = target: Mitogen-activated protein kinase kinase kinase 6 (Homo sapiens) (UniProt O95382); conditions: Compound concentration 1000.0 nM
[38] = target: LIM domain kinase 2 (Homo sapiens) (UniProt P53671); conditions: Compound concentration 1000.0 nM
Chain of LIM domain kinase 2 (Homo sapiens) (P53671 whole entry, looked up, the tested form may be a part): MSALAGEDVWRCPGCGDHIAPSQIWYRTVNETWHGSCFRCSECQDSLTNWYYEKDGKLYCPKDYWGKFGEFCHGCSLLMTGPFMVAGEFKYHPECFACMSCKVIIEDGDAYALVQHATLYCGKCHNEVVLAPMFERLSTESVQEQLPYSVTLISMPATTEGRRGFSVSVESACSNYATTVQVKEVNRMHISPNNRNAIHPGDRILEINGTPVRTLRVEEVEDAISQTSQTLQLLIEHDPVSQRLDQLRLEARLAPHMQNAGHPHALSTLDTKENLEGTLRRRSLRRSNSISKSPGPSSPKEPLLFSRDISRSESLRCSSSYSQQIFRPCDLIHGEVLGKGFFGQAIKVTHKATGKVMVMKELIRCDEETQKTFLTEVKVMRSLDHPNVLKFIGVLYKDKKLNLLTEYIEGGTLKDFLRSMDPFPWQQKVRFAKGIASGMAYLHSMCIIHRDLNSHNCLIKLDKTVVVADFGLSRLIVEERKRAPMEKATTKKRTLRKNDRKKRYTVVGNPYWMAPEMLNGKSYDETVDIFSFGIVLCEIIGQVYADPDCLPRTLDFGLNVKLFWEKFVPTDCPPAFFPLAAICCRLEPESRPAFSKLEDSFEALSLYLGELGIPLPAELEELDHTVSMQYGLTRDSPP

[39] = target: Uncharacterized serine/threonine-protein kinase SBK3 (Homo sapiens) (UniProt P0C264); conditions: Compound concentration 1000.0 nM
Chain of Uncharacterized serine/threonine-protein kinase SBK3 (Homo sapiens) (P0C264 whole entry): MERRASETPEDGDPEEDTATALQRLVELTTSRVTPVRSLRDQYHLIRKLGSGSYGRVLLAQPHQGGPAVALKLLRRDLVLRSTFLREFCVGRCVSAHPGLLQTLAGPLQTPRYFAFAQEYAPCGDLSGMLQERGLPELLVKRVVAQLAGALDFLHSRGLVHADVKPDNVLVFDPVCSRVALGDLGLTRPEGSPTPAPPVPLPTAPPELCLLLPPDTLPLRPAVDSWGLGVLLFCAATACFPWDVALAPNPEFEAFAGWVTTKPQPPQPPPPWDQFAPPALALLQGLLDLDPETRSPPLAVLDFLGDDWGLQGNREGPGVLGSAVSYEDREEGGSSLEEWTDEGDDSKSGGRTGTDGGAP

[40] = target: Interleukin-1 receptor-associated kinase 1 (Homo sapiens) (UniProt P51617); conditions: Compound concentration 1000.0 nM
Chain of Interleukin-1 receptor-associated kinase 1 (Homo sapiens) (P51617 whole entry, looked up): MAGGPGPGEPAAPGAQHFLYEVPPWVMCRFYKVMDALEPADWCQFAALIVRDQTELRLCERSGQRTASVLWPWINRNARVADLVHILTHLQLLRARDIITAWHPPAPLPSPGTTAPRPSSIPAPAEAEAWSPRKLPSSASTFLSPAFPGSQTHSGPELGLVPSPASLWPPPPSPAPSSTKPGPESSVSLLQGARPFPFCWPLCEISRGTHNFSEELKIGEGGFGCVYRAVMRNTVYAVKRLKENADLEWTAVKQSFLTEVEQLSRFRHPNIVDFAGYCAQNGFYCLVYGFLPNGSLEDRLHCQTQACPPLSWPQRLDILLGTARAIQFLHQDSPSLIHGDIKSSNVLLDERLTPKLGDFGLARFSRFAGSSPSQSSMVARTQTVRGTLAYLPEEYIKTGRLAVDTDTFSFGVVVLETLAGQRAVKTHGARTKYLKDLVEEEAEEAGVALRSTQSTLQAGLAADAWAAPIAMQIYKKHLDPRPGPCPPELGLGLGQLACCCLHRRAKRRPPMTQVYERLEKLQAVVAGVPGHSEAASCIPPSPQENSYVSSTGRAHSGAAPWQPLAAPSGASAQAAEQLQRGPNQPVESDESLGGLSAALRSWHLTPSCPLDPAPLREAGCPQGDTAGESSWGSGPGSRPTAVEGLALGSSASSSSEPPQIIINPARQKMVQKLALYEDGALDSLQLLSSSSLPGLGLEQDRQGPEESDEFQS

[41] = target: Serine/threonine-protein kinase pim-2 (Homo sapiens) (UniProt Q9P1W9); conditions: Compound concentration 1000.0 nM
[42] = tested on: GABA-B receptor (GABBR1, rat); assay: GABAB/RA Eurofins-Panlabs selectivity data (BI); conditions: Compound concentration 10.0 uM
[43] = target: Serine/threonine-protein kinase Sgk2 (Homo sapiens) (UniProt Q9HBY8); conditions: Compound concentration 1000.0 nM
[44] = target: NUAK family SNF1-like kinase 1 (Homo sapiens) (UniProt O60285); conditions: Compound concentration 1000.0 nM
[45] = target: Interstitial collagenase (Homo sapiens) (UniProt P03956); assay: PEP_MMP-1 Eurofins-Panlabs selectivity data (BI); conditions: Compound concentration 10.0 uM

`CCOCCn1cc(C(=O)Nc2ccc(-n3nc(-c4cccnc4)cc3C(F)(F)F)cn2)ccc1=O` [BI 1935] gave a residual activity [1] of 100%, a residual activity [2] of 73% and a residual activity [3] of 96%. It also gave a residual activity [4] of 79%, a residual activity [5] of 98% and a residual activity [6] of 87%. For the same compound, the residual activity [7] was 96%, the residual activity [8] was 100% and the residual activity [9] was 100%. It also gave a residual activity [10] of 86%, a residual activity [11] of 61% and a residual activity [12] of 100%. It also gave a residual activity [13] of 100%, a residual activity [14] of 100% and a residual activity [15] of 100%. The residual activity [16] was 100%, the Ki [17] was 6.28 µM and the residual activity [18] was 47%. The residual activity [19] was 88%, the residual activity [20] was 92% and the residual activity [21] was 76%. The residual activity [22] was 100%, the residual activity [23] was 100% and the residual activity [24] was 100%. For the same compound, the residual activity [25] was 100%, the residual activity [26] was 100% and the residual activity [27] was 56%. The residual activity [28] was 100%, the residual activity [29] was 112% and the residual activity [30] was 100%. It also gave a residual activity [31] of 100%, a residual activity [32] of 100% and a residual activity [33] of 92%. It also gave a residual activity [34] of 84%, a residual activity [35] of 89% and a residual activity [36] of 100%. It also gave a residual activity [37] of 86%, a residual activity [38] of 100% and a residual activity [39] of 78%. It also gave a residual activity [40] of 84%, a residual activity [41] of 100% and a residual activity [42] of 94%. The residual activity [43] was 100%, the residual activity [44] was 100% and the residual activity [45] was 100%.
